# Test results from patent US8952024B2, “Herbicidal pyrimidone derivatives” (E I du Pont de Nemours and Company, priority 2009, dated 2015).
# Legend:
# Format in all cases: in vivo
# [1] = test system: barnyardgrass (Echinochloa crus-galli); assay: Test A pre-/postemergence plant response
# How it was run: (§1)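 Greenhouse pots of loam/sand received directed preemergence soil sprays or postemergence sprays (plants 2–10 cm, 1–2 leaf stage), compounds formulated in non-phytotoxic solvent with surfactant. Injury was rated visually versus untreated controls after about ten days on a 0 (no effect) to 100 (complete control) scale.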
# [2] = test system: morningglory (Ipomoea spp.); assay: Test A pre-/postemergence plant response
# How it was run: as §1
# [3] = test system: wheat (Triticum aestivum); assay: Test A pre-/postemergence plant response
# How it was run: as §1
# [4] = test system: pigweed (Amaranthus retroflexus); assay: Test A pre-/postemergence plant response
# How it was run: as §1
# [5] = test system: velvetleaf (Abutilon theophrasti); assay: Test A pre-/postemergence plant response
# How it was run: as §1
# corn (Zea mays) = assay: Test A pre-/postemergence plant response
# How it was run: as §1
# [6] = test system: giant foxtail (Setaria faberii); assay: Test A pre-/postemergence plant response
# How it was run: as §1
# [7] = test system: large crabgrass (Digitaria sanguinalis); assay: Test A pre-/postemergence plant response
# How it was run: as §1
# [8] = test system: barnyardgrass (Echinochloa crus-galli); assay: Test B flooded paddy test; settings: for Plant response rating, Barnyardgrass: Flood (flooded paddy test), 13 to 15 days
# How it was run: (§2)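 Each compound is added to standing floodwater (3 cm above soil, maintained) in pots of 2-leaf-stage plants; greenhouse exposure lasts 13–15 d before visual comparison with controls on a 0–100 control scale.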
# [9] = test system: umbrella sedge (Cyperus difformis); assay: Test B flooded paddy test; settings: for Plant response rating, Sedge, Umbrella: Flood (flooded paddy test), 13 to 15 days
# How it was run: as §2
# [10] = test system: ducksalad (Heteranthera limosa); assay: Test B flooded paddy test; settings: for Plant response rating, Ducksalad: Flood (flooded paddy test), 13 to 15 days
# How it was run: as §2
# rice (Oryza sativa) = assay: Test B flooded paddy test; settings: for Plant response rating, Rice: Flood (flooded paddy test), 13 to 15 days
# How it was run: as §2
# [11] = test system: winter barley (Hordeum vulgare); assay: Test B postemergence plant response
# How it was run: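 Plants grown in peat/vermiculite medium were sprayed postemergence at 2–18 cm height (1- to 4-leaf stage). After 13–15 days in the greenhouse, response was rated visually against untreated controls on a 0–100 scale (0 no effect, 100 complete control).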
# [12] = Postemergence, 125 g ai/ha, 0 to 100 scale where 0 is no effect and 100 is complete control
# [13] = Postemergence, 500 g ai/ha, 0 to 100 scale, 0 = no effect, 100 = complete control, approx. ten days
# [14] = Preemergence, 125 g ai/ha, 0 to 100 scale, 0 = no effect, 100 = complete control
# [15] = Preemergence, 500 g ai/ha, visual injury, 0 to 100 scale (0 no effect, 100 complete control), approx. ten days
# [16] = 250 g ai/ha, flooded paddy test, visual rating on 0 to 100 scale (0 no effect, 100 complete control) after 13 to 15 days
# [17] = 62 g ai/ha, scale of 0 to 100 where 0 is no effect and 100 is complete control
# [18] = 125 g ai/ha, scale 0 to 100, 0 is no effect, 100 is complete control
# [19] = Flood, 31 g ai/ha, scale 0 to 100 (0 no effect, 100 complete control)
smiles,measurement,setting,value
CCCCCn1c(-c2ccccc2)ncc(C(=O)C2=C(O)CCCC2=O)c1=O [Compound 89],"Plant response rating, Barnyardgrass",[1]; [12],90
same,"Plant response rating, Barnyardgrass",[1]; [13],90
same,"Plant response rating, Barnyardgrass",[1]; [14],20
same,"Plant response rating, Barnyardgrass",[1]; [15],80
same,"Plant response rating, Morningglory",[2]; [12],100
same,"Plant response rating, Morningglory",[2]; [13],100
same,"Plant response rating, Morningglory",[2]; [14],0
same,"Plant response rating, Morningglory",[2]; [15],70
same,"Plant response rating, Wheat",[3]; [12],0
same,"Plant response rating, Wheat",[3]; [13],20
same,"Plant response rating, Wheat",[3]; [14],0
same,"Plant response rating, Wheat",[3]; [15],30
same,"Plant response rating, Pigweed",[4]; [12],100
same,"Plant response rating, Pigweed",[4]; [13],100
same,"Plant response rating, Pigweed",[4]; [14],90
same,"Plant response rating, Pigweed",[4]; [15],100
same,"Plant response rating, Velvetleaf",[5]; [12],100
same,"Plant response rating, Velvetleaf",[5]; [13],100
same,"Plant response rating, Velvetleaf",[5]; [14],70
same,"Plant response rating, Velvetleaf",[5]; [15],100
same,"Plant response rating, Corn",corn (Zea mays); [12],0
same,"Plant response rating, Corn",corn (Zea mays); [13],10
same,"Plant response rating, Corn",corn (Zea mays); [14],0
same,"Plant response rating, Corn",corn (Zea mays); [15],0
same,"Plant response rating, Foxtail, Giant",[6]; [12],60
same,"Plant response rating, Foxtail, Giant",[6]; [13],90
same,"Plant response rating, Foxtail, Giant",[6]; [14],20
same,"Plant response rating, Foxtail, Giant",[6]; [15],70
same,"Plant response rating, Crabgrass, Large",[7]; [12],90
same,"Plant response rating, Crabgrass, Large",[7]; [13],100
same,"Plant response rating, Crabgrass, Large",[7]; [14],60
same,"Plant response rating, Crabgrass, Large",[7]; [15],90
same,"Plant response rating, Flood, Barnyardgrass",[8]; [16],40
same,"Plant response rating, Barnyardgrass",[8]; [17],20
same,"Plant response rating, Barnyardgrass",[8]; [18],30
same,Barnyardgrass plant response rating,[8]; [19],20
same,"Plant response rating, Flood, Sedge, Umbrella",[9]; [16],85
same,"Plant response rating, Sedge, Umbrella",[9]; [17],85
same,"Plant response rating, Sedge, Umbrella",[9]; [18],85
same,"Sedge, Umbrella plant response rating",[9]; [19],30
same,"Plant response rating, Flood, Ducksalad",[10]; [16],100
same,"Plant response rating, Ducksalad",[10]; [17],90
same,"Plant response rating, Ducksalad",[10]; [18],100
same,Ducksalad plant response rating,[10]; [19],45
same,"Plant response rating, Flood, Rice",rice (Oryza sativa); [16],15
same,"Plant response rating, Rice",rice (Oryza sativa); [17],0
same,"Plant response rating, Rice",rice (Oryza sativa); [18],0
same,Rice plant response rating,rice (Oryza sativa); [19],0
same,"Plant response rating, Barley","[11]; 31 g ai/ha, postemergence, scale 0 to 100, 0 is no effect, 100 is complete control",0
same,Barley plant response rating (0 to 100 scale),"[11]; 62 g ai/ha, postemergence, 0 is no effect, 100 is complete control, 13 to 15 days",5
same,"Plant response rating, Barley","[11]; Postemergence, 125 g ai/ha, visual rating after 13 to 15 days, scale 0 (no effect) to 100 (complete control)",10
same,"Plant response rating, Barley","[11]; Postemergence, 250 g ai/ha, scale 0 to 100 (0 no effect, 100 complete control)",20
